For test [1], the target named is PI3-Kα (Mus musculus (Mouse), UniProt P42337). In words: PI3-Kα Biochemical Assay (fluorescence polarization kinase assay). The procedure, abridged:
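Co-expressed mouse p110/p85 PI3-Kα (4 nM stock) acting on PI(4,5)P2 (60 μM stock) with ATP/MgCl2 in HEPES pH 7.4 buffer, 35 min at room temperature, then EDTA stop. PI(3,4,5)P3 product detected by displacement of TAMRA-PIP3 from Grip1 PH domain (FP, 535/580 nm). IC50 from sigmoidal fit of % inhibition.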
For orientation: Polarisation of emitted light reports the rotation of a fluorescent probe.

Test [2] relates to PI3-K in BT20 cells (phosphorylation of AKT at serine 473). In words: PI3-Kα Cellular Assay (AKT Ser473 phosphorylation ELISA in BT20 cells). The note with it: Homo sapiens, BT-20, pAKT Ser473 ELISA, 1 hour incubation. The format is cell-based, human. The procedure, abridged:
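Cells seeded overnight in 0.5% FBS, then exposed 1 h at 37 °C to an 11-concentration 1:3 dilution series, in duplicate.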
(An ELISA detects its analyte on a solid surface through an enzyme-linked reagent.)

As usually defined, the IC50 is the point on the concentration scale where inhibition reaches its midpoint. The low end stands for inhibition by little substance, the high end for a need for much substance.

PI3-Kα, sequence (P42337 whole entry, the tested form may be a part): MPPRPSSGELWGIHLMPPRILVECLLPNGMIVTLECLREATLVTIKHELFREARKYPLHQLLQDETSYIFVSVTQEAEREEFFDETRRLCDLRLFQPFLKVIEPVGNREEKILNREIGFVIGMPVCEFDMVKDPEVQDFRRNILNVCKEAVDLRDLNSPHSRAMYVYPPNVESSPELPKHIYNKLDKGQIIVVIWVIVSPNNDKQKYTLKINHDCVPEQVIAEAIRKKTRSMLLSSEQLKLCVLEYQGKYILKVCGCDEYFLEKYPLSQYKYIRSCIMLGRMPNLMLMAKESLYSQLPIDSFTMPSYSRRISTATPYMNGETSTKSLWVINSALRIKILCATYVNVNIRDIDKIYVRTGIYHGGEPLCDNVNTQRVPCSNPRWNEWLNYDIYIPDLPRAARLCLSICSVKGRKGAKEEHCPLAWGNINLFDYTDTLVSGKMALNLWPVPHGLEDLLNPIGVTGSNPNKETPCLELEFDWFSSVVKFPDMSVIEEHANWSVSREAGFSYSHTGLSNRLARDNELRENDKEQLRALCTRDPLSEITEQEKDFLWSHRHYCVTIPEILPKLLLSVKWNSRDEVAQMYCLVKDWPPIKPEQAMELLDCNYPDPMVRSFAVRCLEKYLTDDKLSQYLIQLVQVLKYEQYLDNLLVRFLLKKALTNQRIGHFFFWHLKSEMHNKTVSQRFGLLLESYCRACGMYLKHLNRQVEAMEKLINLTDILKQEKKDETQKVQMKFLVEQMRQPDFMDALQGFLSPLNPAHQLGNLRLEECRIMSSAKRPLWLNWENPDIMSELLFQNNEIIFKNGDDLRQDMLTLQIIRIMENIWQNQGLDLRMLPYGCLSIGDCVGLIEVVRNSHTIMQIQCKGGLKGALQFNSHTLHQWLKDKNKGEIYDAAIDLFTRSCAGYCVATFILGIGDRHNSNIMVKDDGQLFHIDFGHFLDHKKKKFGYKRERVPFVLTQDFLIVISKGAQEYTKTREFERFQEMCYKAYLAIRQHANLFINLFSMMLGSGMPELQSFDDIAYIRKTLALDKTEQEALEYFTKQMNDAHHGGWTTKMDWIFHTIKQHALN
PI3-Kα, sequence (P26450 whole entry partner, the tested form may be a part): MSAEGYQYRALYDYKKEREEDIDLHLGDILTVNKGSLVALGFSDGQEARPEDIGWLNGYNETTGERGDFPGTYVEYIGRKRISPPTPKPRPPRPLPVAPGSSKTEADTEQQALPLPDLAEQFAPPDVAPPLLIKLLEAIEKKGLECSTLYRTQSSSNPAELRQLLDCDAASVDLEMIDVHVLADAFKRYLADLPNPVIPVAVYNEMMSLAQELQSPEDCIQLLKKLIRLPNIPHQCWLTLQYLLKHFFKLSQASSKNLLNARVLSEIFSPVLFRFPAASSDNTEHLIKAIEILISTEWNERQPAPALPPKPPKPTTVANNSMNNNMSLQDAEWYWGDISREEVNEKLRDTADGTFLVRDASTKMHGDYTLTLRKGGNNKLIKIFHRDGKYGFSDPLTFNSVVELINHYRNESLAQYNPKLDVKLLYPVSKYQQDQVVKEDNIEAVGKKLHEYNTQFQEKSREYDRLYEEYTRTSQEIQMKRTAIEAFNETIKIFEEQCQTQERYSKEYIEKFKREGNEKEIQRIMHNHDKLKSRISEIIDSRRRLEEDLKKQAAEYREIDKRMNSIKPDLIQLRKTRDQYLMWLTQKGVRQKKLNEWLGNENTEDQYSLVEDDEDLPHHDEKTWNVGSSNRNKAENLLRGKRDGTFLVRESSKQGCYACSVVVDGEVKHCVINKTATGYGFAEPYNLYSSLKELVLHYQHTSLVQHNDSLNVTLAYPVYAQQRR

Turning to `CNc1nc(C)c2cc(C(=O)Nc3ccon3)c(=O)n(C3CCCC3)c2n1` [Compound 283, 8-cyclopentyl-N-isoxazol-3-yl-4-methyl-2-(methylamino)-7-oxo-7,8-dihydropyrido[2,3-d]pyrimidine-6-carboxamide], the results for the IC50 in test [1] and in test [2] were 5 nM and 72.2 nM, respectively.
For `COc1ncc(-c2cc3c(C)nc(N)nc3n([C@H]3CC[C@H](OCCO)CC3)c2=O)cn1` [Compound 287, 2-amino-8-[trans-4-(2-hydroxyethoxy)cyclohexyl]-6-(2-methoxypyrimidin-5-yl)-4-methylpyrido[2,3-d]pyrimidin-7(8H)-one] the same measures were 2.2 nM and 38.9 nM.
Consider `COc1ncc(-c2cc3c(C)nc(N)nc3n([C@H]3CC[C@H](OCCO)CC3)c2=O)cc1F` [Compound 288, 2-amino-6-(5-fluoro-6-methoxypyridin-3-yl)-8-[trans-4-(2-hydroxyethoxy)cyclohexyl]-4-methylpyrido[2,3-d]pyrimidin-7(8H)-one], for which the values for the IC50 in test [1] and in test [2] were 1.44 nM and 5.3 nM, respectively.
For `Cc1nc(N)nc2c1cc(Br)c(=O)n2[C@H]1CC[C@H](OCCO)CC1` [Compound 291, 2-amino-6-bromo-8-[trans-4-(2-hydroxyethoxy)cyclohexyl]-4-methylpyrido[2,3-d]pyrimidin-7(8H)-one] the same measures were 55.2 nM and 96.5 nM.
For the molecule `Cc1nc(N)nc2c1cc(-c1ccc(N(C)C)nc1)c(=O)n2[C@H]1CC[C@H](OCCO)CC1` [Compound 292], the results for the IC50 in test [1] and in test [2] were 9.28 nM and 12.1 nM, respectively.
For `COc1ncc(-c2cc3c(C)nc(N)nc3n([C@H]3CC[C@@H](OCCO)CC3)c2=O)cn1` [Compound 293, 2-amino-8-[cis-4-(2-hydroxyethoxy)cyclohexyl]-6-(2-methoxypyrimidin-5-yl)-4-methylpyrido[2,3-d]pyrimidin-7(8H)-one] the same measures were 5.31 nM and 15.3 nM.
Take `Cc1nc(N)nc2c1cc(-c1cn[nH]c1)c(=O)n2[C@H]1CC[C@@H](OCCO)CC1` [Compound 296, 2-amino-8-[cis-4-(2-hydroxyethoxy)cyclohexyl]-4-methyl-6-(1H-pyrazol-4-yl)pyrido[2,3-d]pyrimidin-7(8H)-one]: the IC50 was determined as 29.7 nM in test [1] and 9.1 nM in test [2].
The corresponding values for `COc1ccc(-c2cc3c(C)nc(N)nc3n([C@H]3CC[C@H](OC[C@@H](O)CO)CC3)c2=O)cn1` [Compound 300, 2-amino-8-(trans-4-{[(2S)-2,3-dihydroxypropyl]oxy}cyclohexyl)-6-(6-methoxypyridin-3-yl)-4-methylpyrido[2,3-d]pyrimidin-7(8H)-one] are 6.82 nM and 13.2 nM.
For `Cc1nc(N)nc2c1cc(-c1cnn(C)c1)c(=O)n2[C@H]1CC[C@H](OCCO)CC1` [Compound 302, 2-amino-8-[trans-4-(2-hydroxyethoxy)cyclohexyl]-4-methyl-6-(1-methyl-1H-pyrazol-4-yl)pyrido[2,3-d]pyrimidin-7(8H)-one] the same measures were 22.3 nM and 226 nM.
For the molecule `COc1ccc(-c2cc3c(C)nc(N)nc3n([C@H]3C[C@H](OCCO)C3)c2=O)cn1` [Compound 314, 2-amino-8-(trans-3-(2-hydroxyethoxy)cyclobutyl]-6-(6-methoxypyridin-3-yl)-4-methylpyrido[2,3-d]pyrimidin-7(8H)-one], the IC50 in test [1] is 10.2 nM; in test [2], 50.8 nM.
For `COc1ncc(-c2cc3c(C)nc(N)nc3n([C@H]3C[C@H](OCCO)C3)c2=O)cc1F` [Compound 315, 2-amino-6-(5-fluoro-6-methoxypyridin-3-yl)-8-[trans-3-(2-hydroxyethoxy)cyclobutyl]-4-methylpyrido[2,3-d]pyrimidin-7(8H)-one] the same measures were 3.11 nM and 14.6 nM.
